Assay results taken from patent US4365989A, “2-Thiocyanomethylthio-4,4-dialkyl-5-substituted-thiazoline fungicides” (Chevron Research Company, priority 1982, dated 1982).

Columns and labels:
Phytophthora infestans = assay: whole plant or invertebrate; type: in vivo; settings: in Solanum lycopersicum, read-out: % Control Tom. L. Bl.
[1] = tested on: Watergrass (Ethinochloa crusgalli); assay: Post-emergent herbicidal test, Watergrass; type: in vivo; settings: 504 h; post-emergence; 33 micrograms/cm^2; 3 weeks
[2] = tested on: Alternaria solani conidia; assay: Tomato Early Blight control; type: in vivo; settings: 250 ppm; tomato Bonny Best seedlings
Experimental: Compounds of the invention were tested for the control of the tomato Early Blight organism, Alternaria solani conidia. Tomato (variety Bonny Best) seedlings of 6 to 7 weeks old were used. The tomato plants were sprayed with a 250 ppm solution of the test compound in an acetone-and-water solution containing a small amount of a nonionic emulsifier. The sprayed plants were inoculated one day later with the organism, placed in the environmental chamber and incubated at 66° to 68° F. and 100% relative humidity for 24 hours. Following the incubation, the plants were maintained in a greenhouse for about 12 days. Percent diseases control was based on the percent disease development on untreated check plants.

Fusarium Moniliforme = assay: Mycelial inhibition, Fusarium; type: cell-based; settings: Fusarium verticillioides, 24 hours, relative to standard DIFOLATAN
Experimental: (§1) A number of the compounds of the present invention were evaluated for in-vitro fungicidal effectiveness by means of a mycelial inhibition test. This test is designed to measure the fungitoxic activity of fungicidal chemicals in terms of their degree of inhibition of mycelium growth. Each compound to be tested was dissolved in acetone to 500 ppm concentration. Paper strips were infused with the particular mycelium growth by covering the paper with a potato dextrose broth culture of mycelial suspension. The papers were then placed on potato dextrose agar plates and sprayed by means of a microsprayer with the fungicidal solution. The treated paper strips were incubated at 25° C. and the data is taken after 24 hours. Fungicidal activities are measured by a zone of inhibited mycelial growth from the center of the paper strip. The effectiveness of the compounds tested for fungicidal activity is reported in Table IIa for those compounds which were effective in inhibiting mycelial growth. The activity is reported in terms of [formula]

Spirulina maxima = assay: Algae control, Spirulina; type: cell-based; settings: Limnospira maxima, 7 to 10 days, read-out: Algicidal Activity % Control Spirulina
Experimental: Representative compounds of the invention were tested as aquatic herbicides and algicides by the following method. The weed test species were Lemna minor, Elodea canadensis and the algae used was Spirulina maxima.
An acetone solution of the test compound and a small amount of an alkylarylpolyoxyethylene glycol-containing surfactant was prepared. This solution was mixed with a nutrient solution in quantity sufficient to give a concentration of 2 ppm. Eight oz. plastic cups were filled with 150 ml of this solution. A sample of the test, Lemna and Elodea, was added together to each cup. Forty ml of Spirulina culture with the 2 ppm treatment was placed in 11/2 oz plastic cups (#4 glass vials used after June 9, 1980). The containers were then placed in an illuminated environment maintained at a temperature of about 20° C. for incubation. The containers were observed periodically for growth (as compared to an untreated check). The effectiveness of the test compound was determined based on a final observation of growth after 7 to 10 days. The results of the test on a 0-to-100 basis--0 indicating no effectiveness and 100 indicating complete effectiveness--are reported in Table IV.

Rhizoctonia solani = assay: Mycelial inhibition, Rhizoctonia; type: cell-based; settings: 24 hours, relative to standard DIFOLATAN, read-out: Mycelial inhibition, % Standard, Rhizoc.
Experimental: as §1

[3] = tested on: Crabgrass (Digitaria sanguinalis); assay: Post-emergent herbicidal test, Crabgrass; type: in vivo; settings: 504 h, post-emergence, 33 micrograms/cm^2, 3 weeks
[4] = tested on: Mustard (Brassica arvensis); assay: Post-emergent herbicidal test, Mustard; type: in vivo; settings: 504 h, post-emergence, 33 micrograms/cm^2, 3 weeks
Soybean [5] = assay: Post-emergent herbicidal test, Soybean; type: in vivo; settings: Glycine max, 504 h; post-emergence; 33 micrograms/cm^2; 3 weeks; read-out: Herbicidal Activity Post-Emergence % Control Soybean
[6] = tested on: Pigweed (Amaranthus retraflexus); assay: Pre-emergent herbicidal test, Pigweed; type: in vivo; settings: 504 h, pre-emergence, 33 micrograms/cm^2, 3 weeks
Experimental: (§2) An acetone solution of the test compound was prepared by mixing 750 mg of the compound, 220 mg of a nonionic surfactant and 25 ml of acetone. This solution was added to approximately 125 ml of water containing 156 mg of surfactant.
(§3) Seeds of the test vegetation were planted in a pot of […] and the test solution was sprayed uniformly onto the soil surface at a dose of 33 micrograms/cm^2. The pot was watered and placed in a greenhouse. […] At the end of this period, the herbicidal effectiveness of the compound was rated based on the physiological observations. A 0-to-100 scale was used, 0 representing no phytotoxicity, 100 representing complete kill.

Soybean [7] = assay: Pre-emergent herbicidal test, Soybean; type: in vivo; settings: Glycine max, 504 h; pre-emergence; 33 micrograms/cm^2; 3 weeks; read-out: Herbicidal Activity Pre-Emergence % Control Soybean
Experimental: as §2, §3

Aspergillus Niger = assay: Mycelial inhibition, Aspergillus; type: cell-based; settings: 24 hours, relative to standard DIFOLATAN, read-out: Mycelial inhibition, % Standard, Asper.
Experimental: as §1

[8] = tested on: Pigweed (Amaranthus retraflexus); assay: Post-emergent herbicidal test, Pigweed; type: in vivo; settings: 504 h, post-emergence, 33 micrograms/cm^2, 3 weeks

`C=C1SC(SCSC#N)=NC1(C)C` [Compound 7, 2-Thiocyanomethylthio-4,4-dimethyl-5-methylenethiazoline] was tested, and the pest or weed control at 250 ppm (Phytophthora infestans) was 75%, the pest or weed control at 33 µg/cm2 [1] was 22% and the “% Control Tom. E. Bl.” value [2] was 71%. The inhibition at 500 ppm (Fusarium Moniliforme) was 32%, the activity at 2 ppm (Spirulina maxima) was 90% and the inhibition at 500 ppm (Rhizoctonia solani) was 39%. The pest or weed control at 33 µg/cm2 [3] was 35%, the pest or weed control at 33 µg/cm2 [4] was 50% and the plant injury at 33 µg/cm2 (Soybean [5]) was 0%. The pest or weed control at 33 µg/cm2 [6] was 50%, the plant injury at 33 µg/cm2 (Soybean [7]) was 45% and the inhibition at 500 ppm (Aspergillus Niger) was 32%. For the same compound, the pest or weed control at 33 µg/cm2 [8] was 35%.
With `C=C1SC(SCSC#N)=NC1(CC)CC` [Compound 6, 2-thiocyanomethylthio-4,4-diethyl-5-methylenethiazoline] the pest or weed control at 250 ppm (Phytophthora infestans) was 0%, the pest or weed control at 33 µg/cm2 [1] was 35% and the “% Control Tom. E. Bl.” value [2] was 0%. It also gave an inhibition at 500 ppm (Fusarium Moniliforme) of 31%, an activity at 2 ppm (Spirulina maxima) of 75% and an inhibition at 500 ppm (Rhizoctonia solani) of 89%. It also gave a pest or weed control at 33 µg/cm2 [3] of 45%, a pest or weed control at 33 µg/cm2 [4] of 35% and a plant injury at 33 µg/cm2 (Soybean [5]) of 15%. The pest or weed control at 33 µg/cm2 [6] was 73%, the plant injury at 33 µg/cm2 (Soybean [7]) was 30% and the inhibition at 500 ppm (Aspergillus Niger) was 77%. The pest or weed control at 33 µg/cm2 [8] was 35%.
With `C=C1SC(SCSC#N)=NC12CCCCC2` [Compound 8] the pest or weed control at 250 ppm (Phytophthora infestans) was 29%, the pest or weed control at 33 µg/cm2 [1] was 38% and the “% Control Tom. E. Bl.” value [2] was 0%. For the same compound, the inhibition at 500 ppm (Fusarium Moniliforme) was 0%, the activity at 2 ppm (Spirulina maxima) was 70% and the inhibition at 500 ppm (Rhizoctonia solani) was 71%. The pest or weed control at 33 µg/cm2 [3] was 20%, the pest or weed control at 33 µg/cm2 [4] was 25% and the plant injury at 33 µg/cm2 (Soybean [5]) was 33%. It also gave a pest or weed control at 33 µg/cm2 [6] of 0%, a plant injury at 33 µg/cm2 (Soybean [7]) of 0% and an inhibition at 500 ppm (Aspergillus Niger) of 77%. It also gave a pest or weed control at 33 µg/cm2 [8] of 50%.
In the case of `CC1(C)N=C(SCSC#N)SC1=C(Cl)Cl` [Compound 2, 2-thiocyanomethylthio-4,4-dimethyl-5-dichloromethylenethiazoline], the pest or weed control at 250 ppm (Phytophthora infestans) is reported as 0%, the pest or weed control at 33 µg/cm2 [1] is reported as 45% and the “% Control Tom. E. Bl.” value [2] is reported as 67%. The inhibition at 500 ppm (Fusarium Moniliforme) was 29%, the activity at 2 ppm (Spirulina maxima) was 45% and the inhibition at 500 ppm (Rhizoctonia solani) was 71%. It also gave a pest or weed control at 33 µg/cm2 [3] of 25%, a pest or weed control at 33 µg/cm2 [4] of 63% and a plant injury at 33 µg/cm2 (Soybean [5]) of 10%. It also gave a pest or weed control at 33 µg/cm2 [6] of 0%, a plant injury at 33 µg/cm2 (Soybean [7]) of 0% and an inhibition at 500 ppm (Aspergillus Niger) of 107%. It also gave a pest or weed control at 33 µg/cm2 [8] of 55%.
In the case of `CCC1(CC)N=C(SCSC#N)SC1=CBr` [Compound 5, 2-thiocyanomethylthio-4,4-diethyl-5-bromo-methylenethiazoline], the pest or weed control at 250 ppm (Phytophthora infestans) is reported as 20%, the pest or weed control at 33 µg/cm2 [1] is reported as 58% and the “% Control Tom. E. Bl.” value [2] is reported as 0%. For the same compound, the inhibition at 500 ppm (Fusarium Moniliforme) was 0%, the activity at 2 ppm (Spirulina maxima) was 40% and the inhibition at 500 ppm (Rhizoctonia solani) was 82%. For the same compound, the pest or weed control at 33 µg/cm2 [3] was 30%, the pest or weed control at 33 µg/cm2 [4] was 35% and the plant injury at 33 µg/cm2 (Soybean [5]) was 20%. The pest or weed control at 33 µg/cm2 [6] was 0%, the plant injury at 33 µg/cm2 (Soybean [7]) was 0% and the inhibition at 500 ppm (Aspergillus Niger) was 50%. The pest or weed control at 33 µg/cm2 [8] was 35%.
For `CC1(C)N=C(SCSC#N)SC1=CSc1ccc(Cl)cc1` [Compound 1, 2-thiocyanomethylthio-4,4-dimethyl-5-(4-chlorophenylthio)methylenethiazoline], the pest or weed control at 250 ppm (Phytophthora infestans) was 21%, the pest or weed control at 33 µg/cm2 [1] was 0% and the “% Control Tom. E. Bl.” value [2] was 47%. For the same compound, the inhibition at 500 ppm (Fusarium Moniliforme) was 0%, the activity at 2 ppm (Spirulina maxima) was 0% and the inhibition at 500 ppm (Rhizoctonia solani) was 0%. It also gave a pest or weed control at 33 µg/cm2 [3] of 0%, a pest or weed control at 33 µg/cm2 [4] of 0% and a plant injury at 33 µg/cm2 (Soybean [5]) of 0%. It also gave a pest or weed control at 33 µg/cm2 [6] of 0%, a plant injury at 33 µg/cm2 (Soybean [7]) of 0% and an inhibition at 500 ppm (Aspergillus Niger) of 0%. The pest or weed control at 33 µg/cm2 [8] was 0%.
